Measured values as given in patent publication US7186521B2, “Determining the effect of a substance on sequestration, uptake, and accumulation of amyloid in brain cells” (The Regents of the University of California, priority 2000, dated 2007).
“Also recorded” adds a separate entry of the source. Ends that are not written are not given here.

Key:
[1] = test system: cultured hippocampal slices; assay: Aβ1–42 uptake/internalization in cultured hippocampal slices (Aβ1–42 immunocytochemistry, NIH Image quantification); type: cell-based, Sprague-Dawley rat; settings: for slices with intraneuronal Aβ1–42 immunostaining: Aβ1–42 plus antagonist (GRGDSP 2 mM; echistatin 2 μM); for number of Aβ-ir particles within the sample field / size (average area) of individual Aβ-ir particles / total area encompassed by Aβ-ir elements: CA1b stratum pyramidale; for number of Aβ-ir particles within the sample field: Aβ1–42 plus antagonist vs Aβ alone (FIG. 4G), significant for GRGDSP only; for size (average area) of individual Aβ-ir particles / total area encompassed by Aβ-ir elements: Aβ1–42 plus antagonist; for size (average area) of individual Aβ-ir particles: mean±sem relative to Aβ alone (FIG. 4E); for total area encompassed by Aβ-ir elements: mean±sem relative to Aβ alone (FIG. 4F); for effect on sequestration/uptake/internalization of Aβ1–42: co-incubated with Aβ1–42, 6 days, GRGDSP and GRADSP 2 mM, echistatin 2 μM
Description: (§1) Organotypic hippocampal cultures were prepared using the technique of Stoppini et al. (1991). Briefly, hippocampi were harvested from brains of 9–12 days old Sprague-Dawley rat pups under sterile conditions. Sections were cut (400 μm thick) perpendicular to the long axis of hippocampus using a Mclllwain tissue chopper and were collected into a cutting medium consisting of MEM with Earle's salts (Gibco, Rockville Md.), 25 mM HEPES, 10 mM Tris base, 10 mM glucose, and 3 mM MgCl2 (pH 7.2). Slices were positioned onto 30 mm cell culture inserts (Millicell-CM, Millipore, Bedford, […].) that were placed in 6 well culture trays with 1 ml of growth medium per well [growth medium: MEM with Hank's salts (Gibco), 20% horse serum, 3 mM glutamine, 25 mM HEPES, 5 mM NaHCO3, 25 mM glucose, 0.5 mM ascorbate, 2 mM CaCl2, 2.5 mM MgCl2, 0.5 mg/1 insulin, and penicillin, pH 7.2]. The cultures were incubated at 35° C. with a 5% CO2-enriched atmosphere and the media was changed every other day until use 10–12 days later.
(§2) Cultured hippocampal slices were exposed to media containing the human Aβ1–42 sequence in the presence or absence of the integrin antagonist peptide, Gly-Arg-Gly-Asp-Ser-Pro, or GRGDSP (SEQ. ID. No.3) (2 mM dissolved in media) (Ruoslahti, E., Ann Rev Cell Dev Biol 12:697–715 (1996)). In some cases, slices were co-treated with the specific NMDA receptor antagonist 2-amino-5-phosphonovalerate (AP5) (Sigma) at 50 μM. Control slices in neighboring wells received media-vehicle only. Aβ1–42 peptide solution was freshly prepared before the start of the experiment using 0.1N NaOH, pH adjusted with 0.1N HCl to 7.4, and then diluted with serum-free culture medium. Aβ was applied at 30 μM for 8–10 hr after which it was diluted to 15 μM by the addition of fresh culture media containing heated treated horse serum. Treatment was repeated every other day for a total 6 days. Disintegrins are small (4–10 kDa) RGD-containing, cysteine-rich peptides from snake venom that bind integrins with high affinity (Kd˜1 nM–0.1 μM) and are potent antagonists of integrin functions (Huang, T. F., Cell Mol Life Sci 54:527–540 (1998)for review). In some experiments the disintegrin echistatin (2 μM dissolved in media) was applied instead of GRGDSP (SEQ. ID. No.3).
(§3) The following treatment, slices were thoroughly washed with 0.1M sodium phosphate buffered saline (PBS), fixed for 12–16 hr in cold 0.1M phosphate buffer (PB; pH 7.2) containing 4% paraformaldehyde, cryoprotected in 20% sucrose/PB for 1–2 hr and then carefully removed from the insert membranes. Serial sections were cut at 25 μm thick, parallel to the broad face of the explant, using a freezing microtome. Immunocytochemistry was performed using the standard avidin biotin horseradish peroxidase complex (ABC) method using reagents and instructions of the VECTASTAIN® Elite ABC kit from Vector Laboratories (Burlingame, Calif.) with diaminobenzidine tetrahydrochloride (0.05% in 50 mM Tris-HCl buffer, pH 7.4) as chromagen and PBS for rinses and as diluent for antibody incubations. Briefly, free-floating sections were preincubated with 3% normal goat serum (for anti-Aβ1–42 and anti-cathepsin D antibodies) or 10% normal horse serum (for ED-1) in PBS for 1 hr at room temperature. […] Sections were washed in PBS, incubated in biotinylated anti-rabbit or anti-mouse IgG (both at 1:200) for 2–3 hr, washed in PBS, incubated in the avidin-biotin complex solution for 45 min and then processed through the diaminobenzidine reaction. After final rinses in PBS, sections were mounted on SuperFrost Plus slides (Fisher Scientific, Pittsburgh), air-dried, dehydrated in a series of graded ethanols, and coverslipped from Clearing Solvent (Stephens Scientific, Kalamazoo, Mich.) with Permount (Fisher).
Images centered on CA1b stratum pyramidale were obtained at 40× objective magnification using a Sony DKC-5000 digital camera attached to a Zeiss Universal microscope. […]

cathepsin D = assay: Cathepsin D immunoreactivity in cultured hippocampal slices; type: cell-based, Sprague-Dawley rat
Description: as §1, §2
The following treatment, slices were thoroughly washed with 0.1M sodium phosphate buffered saline (PBS), fixed for 12–16 hr in cold 0.1M phosphate buffer (PB; pH 7.2) containing 4% paraformaldehyde, cryoprotected in 20% sucrose/PB for 1–2 hr and then carefully removed from the insert membranes. Serial sections were cut at 25 μm thick, parallel to the broad face of the explant, using a freezing microtome. […]

reactive microglia = assay: Microglial activation (ED-1 immunoreactivity) in cultured hippocampal slices; type: cell-based, Sprague-Dawley rat; settings: for effect on ED-1-ir microglia: 50 μM AP5 with Aβ1–42 and 2 mM GRGDSP, 6 days; for number of ED-1 positive cells: treatment by itself
Description: as §1, §2
as §3, with “After final rinses in PBS, sections were mounted on SuperFrost Plus slides (Fisher Scientific, Pittsburgh), air-dried, dehydrated in a series of graded ethanols, and coverslipped from Clearing Solvent (Stephens Scientific, Kalamazoo, Mich.) with Permount (Fisher).” left out

[2] = test system: LTP stabilization in field CA1 of hippocampus; settings: injection of 5 μM echistatin; Chun et al., 2001; cited from earlier work
[3] = test system: integrin binding to fibronectin and vitronectin; settings: literature; used as inactive control peptide; cited from earlier work
CHO cells = CHO cells in culture; Matter et al. 1998; cited from earlier work
RGD-binding integrins = assay: cell-based or functional assay
[4] = 50 μM AP5 with Aβ1–42 and 2 mM GRGDSP, 6 days
[5] = treatment alone, 6 days, count of slices with Aβ-ir out of number of slices tested (Aβ 45, RGD 14)
[6] = treatment alone, 6 days (GRGDSP 2 mM)
[7] = Aβ + antagonist co-incubation, 6 days, count out of slices tested (61, 16, 21, 16), RGD and RAD 2 mM, Ech 2 μM

Molecule: NC(CCCP(=O)(O)O)C(=O)O (stereo not shown) [AP5, 2-amino-5-phosphonovalerate]
- effect on GRGDSP-enhanced Aβ1–42 uptake [1, 4]: completely blocked Aβ1–42 uptake; also recorded: completely eliminated Aβ uptake
- effect on cathepsin D-ir (cathepsin D; [4]): almost totally suppressed; also recorded: suppressed cathepsin D-ir
- effect on ED-1-ir microglia (reactive microglia): ED-1-ir (C′) to vehicle control levels
- effect on ED-1-ir microglia (reactive microglia; listed as AP-5): greatly reduced

Molecule: Aβ1–42: human amyloid beta peptide, 42-residue form, applied exogenously to slices
- slices with intraneuronal Aβ1–42 immunoreactivity (Aβ-ir) ([1]; Aβ1–42 alone, 6 days): 42%
- Aβ positive cases [1, 5]: 19
- cathepsin D-ir (cathepsin D; [6]): did not cause substantial increases in cathepsin D-ir
- number of ED-1 positive cells (reactive microglia): did not cause a noticeable increase in the number of ED-1 positive cells

Molecule: echistatin (QCESGPCCRNCKFLKEGTICKRARGDDMDDYCNGKTCDCPRNPHKGPAT)
- slices with intraneuronal Aβ1–42 immunostaining ([1]; 6 days): 86%
- Aβ positive cases [1, 7]: 18
- number of Aβ-ir particles within the sample field [1]: increased the numbers of Aβ-ir particles
- size (average area) of individual Aβ-ir particles [1]: +95±13%
- total area encompassed by Aβ-ir elements [1]: 233±24%
- effect on sequestration/uptake/internalization of Aβ1–42 [1]: significantly enhanced Aβ internalization; also recorded: increased the uptake of Aβ1–42 peptide
- effect on LTP stabilization [2]: selectively disrupts LTP stabilization

Molecule: GRADSP
- Aβ positive cases [1, 7]: 9
- number of Aβ-ir particles within the sample field [1]: did not cause significant changes
- size (average area) of individual Aβ-ir particles [1]: did not cause significant changes
- total area encompassed by Aβ-ir elements [1]: did not cause significant changes
- effect on sequestration/uptake/internalization of Aβ1–42 [1]: did not measurably affect sequestration of Aβ1–42; also recorded: modest
- antagonism of integrin binding to fibronectin and vitronectin [3]: very weak antagonist

Molecule: Gly-Arg-Gly-Asp-Ser-Pro [GRGDSP]
- slices with intraneuronal Aβ1–42 immunostaining ([1]; 6 days): More than 88%
- number of Aβ-ir particles within the sample field [1]: increased the numbers of Aβ-ir particles
- size (average area) of individual Aβ-ir particles [1]: +101±13%
- total area encompassed by Aβ-ir elements [1]: 324±16%
- effect on sequestration/uptake/internalization of Aβ1–42 [1]: markedly increase sequestration of the exogenous peptide; also recorded: markedly enhances uptake in cultured hippocampal slices; also recorded: enhanced; also recorded: increased the uptake of Aβ1–42 peptide
- induction of Aβ-ir ([1]; peptide by itself, without Aβ1–42): did not induce Aβ-ir
- Aβ positive cases [1, 5]: 0
- cathepsin D-ir (cathepsin D; Aβ1–42 plus 2 mM GRGDSP, 6 days): generated intense intraneuronal cathepsin D-ir; also recorded: elevated
- cathepsin D-ir (cathepsin D; [6]): did not increase cathepsin D-ir
- microglial response (ED-1-ir) (reactive microglia; Aβ1–42 and GRGDSP applied together): produced a pronounced microglial response
- number of ED-1 positive cells (reactive microglia): did not cause a noticeable increase in the number of ED-1 positive cells
- effect on binding and uptake of Aβ (CHO cells): block the binding and uptake of Aβ in CHO cells

Molecule: GRADSP [inactive control peptide Gly-Arg-Ala-Asp-Ser-Pro (GRADSP)]
- Aβ positive cases (slices with intraneuronal Aβ1-42 immunoreactivity), Aβ + RAD, of 16 slices tested (slices (of 16 tested)) (RGD-binding integrins): 9

Molecule: GRGDSP [integrin antagonist peptide Gly-Arg-Gly-Asp-Ser-Pro (GRGDSP)]
- Aβ positive cases (slices with intraneuronal Aβ1-42 immunoreactivity), Aβ + RGD, of 61 slices tested (slices (of 61 tested)) (RGD-binding integrins): 54
- increase in size (mean area) of Aβ-ir elements in CA1 stratum pyramidale, relative to Aβ alone (RGD-binding integrins): 101%
- total area encompassed by Aβ-immunoreactive elements, relative to Aβ alone (RGD-binding integrins): 324%
